Experimental data from patent US12667560B2, “Co-administration of mirdametinib and lifirafenib for use in treating cancers” (BeiGene, Ltd., priority 2020, dated 2026).
Structures can show the parent of a compound that is named as a salt.

Test system: subcutaneous Calu-6 tumors which harbor a K-RAS mutation
Experiment: Efficacy study in Calu-6 K-RAS mutated human xenograft lung adenocarcinoma model
Format: in vivo, Balb/c nude mice
Settings: Compound B maleate alone, 2.5 mg/kg (free base) p.o. BID, Group 2
Method: To determine the effects of Compound B Maleate and Compound A, alone or in combination, on growth of subcutaneous Calu-6 tumors which harbor a K-RAS mutation in Balb/c nude mice in an Efficacy Study.
Experimental designs for the Efficacy study are illustrated in Table 2.
Each mouse was inoculated subcutaneously at the right flank with Calu-6 tumor cells (5×10^6 cells in 0.1 ml 50% Matrigel® in MEM). Tubes containing suspended cells and syringes were kept on ice to avoid solidification of Matrigel®. 2× overage was implemented for cell injection. When mean tumor volume reached the indicated sizes in Table 2, animals were randomly assigned to the indicated groups in Table 2 and received the first dosing. […]
Tumor volumes and mouse body weights were measured three times weekly after tumors became palpable and before randomization and grouping. Afterwards, tumor volumes and mouse body weights were measured twice weekly to termination, in two dimensions using a caliper, and the tumor volumes were expressed in mm^3 using the formula: V=0.5 L×W^2, where L and W were the long and short diameters of the tumor, respectively. The TGI value for the drug A-treated group at Day X was calculated as following: TGI (%)={1−[mTV(drug at Day X)−mTV(drug at Day 0)]/[mTV(veh at Day X)−mTV(veh at Day 0)]}×100, where mTV represented mean tumor volume. […]

Compound: O=C1CCc2c(Oc3ccc4c(c3)[C@@H]3[C@H](C4)[C@H]3c3nc4ccc(C(F)(F)F)cc4[nH]3)ccnc2N1 [Compound B maleate]
- inhibition of Calu-6 tumor growth compared to the vehicle control: significant inhibition
